Experimental data reported in patent US5698522A, “6-position modified decapeptide LHRH antagonists” (Abbott Laboratories, priority 1995, dated 1997).
Where a SMILES comes first, the peptide text is derived from it. Side-chain parts run from the residue outwards. [ ]: non-standard residue; d: D form. The star is where a group is joined. dPhe(4-Cl) = N[C@H](Cc1ccc(Cl)cc1)C(=O)O; d2Nal = N[C@H](Cc1ccc2ccccc2c1)C(=O)O; Acetyl(3-pyridyl) = O=C(Cc1cccnc1)*; NMeY = CN[C@@H](Cc1ccc(O)cc1)C(=O)O; d3Pal = N[C@H](Cc1cccnc1)C(=O)O

Biological target: T1, LHRH receptor (Rattus norvegicus, UniProt P30969)
T1 construct: endogenous in cells
T1 sequence (P30969 1-327): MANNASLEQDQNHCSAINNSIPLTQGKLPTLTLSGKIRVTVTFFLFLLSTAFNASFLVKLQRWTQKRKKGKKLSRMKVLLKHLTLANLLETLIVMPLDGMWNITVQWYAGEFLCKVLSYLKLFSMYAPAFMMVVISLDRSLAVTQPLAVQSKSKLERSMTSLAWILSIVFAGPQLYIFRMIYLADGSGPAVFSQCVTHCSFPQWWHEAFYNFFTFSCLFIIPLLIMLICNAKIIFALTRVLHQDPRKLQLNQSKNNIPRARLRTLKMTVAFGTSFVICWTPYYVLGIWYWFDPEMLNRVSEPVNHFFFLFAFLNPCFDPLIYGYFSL
Assay: in vitro LHRH antagonist potency (pA2) against the agonist leuprolide
Assay type: cell-based
Conditions: negative logarithm of the antagonist concentration which shifts the response curve produced by the agonist leuprolide to two-fold higher concentration
Method in brief: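 Functional antagonism against the agonist leuprolide. pA2 is the negative log of antagonist concentration that shifts the leuprolide response curve to twofold higher concentration.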

CC(=O)N[C@H](Cc1ccc2ccccc2c1)C(=O)N[C@H](Cc1ccc(Cl)cc1)C(=O)N[C@H](Cc1cccnc1)C(=O)N[C@@H](CO)C(=O)N(C)[C@@H](Cc1ccc(O)cc1)C(=O)N[C@H](CCCCNC(=O)CNC(=O)Cc1cccnc1)C(=O)N[C@@H](CC(C)C)C(=O)N[C@@H](CCCNC(=N)N)C(=O)N1CCC[C@H]1C(=O)N[C@H](C)C(N)=O [Example 65c, NAc-D2Nal^1 -D4ClPhe^2 -D3Pal^3 -Ser^4 -NMeTyr^5 -DLys(N-epsilon-Gly-3Pyridylacetyl)^6 -Leu^7 -Arg^8 -Pro^9 -DAla^10 NH2] (Ac-[d2Nal][dPhe(4-Cl)][d3Pal]S[NMeY][dK]([Gly-Acetyl(3-pyridyl)])LRP[dA]-NH2)
Kb: 0.0288 nM
